In ChEMBL document CHEMBL1201862, “PubChem BioAssay data set” (2004):
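Values below derive from 48-hour exposures of cells grown in 96-well plates, with endpoints linearly interpolated between the two concentrations bracketing the appropriate inhibition level. GI50 = concentration required for 50% inhibition of growth.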 The source made the active and inactive calls. Rule as the data show it: active = GI50 up to about 1.1 µM and inactive = higher.

What was measured:
Assay in all cases: growth of human tumour cells (NCI), 48 h
SK-OV-3 = test system: SK-OV-3
IGROV-1 = test system: IGROV-1
NCI-H460 = test system: NCI-H460
786-0 = test system: 786-0
ACHN = test system: ACHN
OVCAR-4 = test system: OVCAR-4
NCI/ADR-RES = test system: NCI/ADR-RES
SK-MEL-28 = test system: SK-MEL-28
RXF 393 = test system: RXF 393
UACC-257 = test system: UACC-257
SNB-19 = test system: SNB-19
MOLT-4 = test system: MOLT-4
U-251 = test system: U-251
HCT-15 = test system: HCT-15
Malme-3M = test system: Malme-3M
LOX IMVI = test system: LOX IMVI
PC-3 = test system: PC-3
CAKI-1 = test system: CAKI-1
UO-31 = test system: UO-31
K562 = test system: K562

Structure (SMILES)	GI50 (SK-OV-3)	GI50 (IGROV-1)	GI50 (NCI-H460)	GI50 (786-0)	GI50 (ACHN)	GI50 (OVCAR-4)	GI50 (NCI/ADR-RES)	GI50 (SK-MEL-28)	GI50 (RXF 393)	GI50 (UACC-257)	GI50 (SNB-19)	GI50 (MOLT-4)	GI50 (U-251)	GI50 (HCT-15) [µM]	GI50 (Malme-3M)	GI50 (LOX IMVI)	GI50 (PC-3)	GI50 (CAKI-1)	GI50 (UO-31)	GI50 (K562)
CC12ON(P(=O)(c3ccccc3)c3ccccc3)C(C)(c3ccccc31)c1ccccc12	> 100 µM (inactive)	> 100 µM (inactive)	67.5 µM (inactive)	> 100 µM (inactive)	> 100 µM (inactive)	21.5 µM (inactive)	> 100 µM (inactive)	> 100 µM (inactive)	81.7 µM (inactive)	> 100 µM (inactive)	> 100 µM (inactive)	32.7 µM (inactive)	> 100 µM (inactive)	> 100	> 100 µM (inactive)	> 100 µM (inactive)	> 100 µM (inactive)	> 100 µM (inactive)	> 100 µM (inactive)	88.3 µM (inactive)
Nc1nc(SCc2ccccc2[N+](=O)[O-])c2[nH]cnc2n1	> 71 µM (inactive)	> 38 µM (inactive)	> 40.2 µM (inactive)	> 65.2 µM (inactive)	> 57.8 µM (inactive)	62.2 µM (inactive)	26.7 µM (inactive)	> 61.1 µM (inactive)	> 62.8 µM (inactive)	> 40.1 µM (inactive)	> 83.2 µM (inactive)	> 100 µM (inactive)	> 61.9 µM (inactive)	> 56.5	> 30.6 µM (inactive)	> 53.3 µM (inactive)	31.5 µM (inactive)	38.7 µM (inactive)	> 66.5 µM (inactive)	> 55.2 µM (inactive)
CCOC(=O)CC[C@H](NC(=O)[C@H](N)Cc1ccc(N(CCCl)CCCl)cc1)C(=O)OCC	36.3 µM (inactive)	40.6 µM (inactive)	2.61 µM (inactive)	9.55 µM (inactive)	4.76 µM (inactive)	13.1 µM (inactive)	9.42 µM (inactive)	21.6 µM (inactive)	14.2 µM (inactive)	11 µM (inactive)	27.6 µM (inactive)	0.386 µM (active)	16.8 µM (inactive)	18.1	3.61 µM (inactive)	11.6 µM (inactive)	20.8 µM (inactive)	4.65 µM (inactive)	14.1 µM (inactive)	22.6 µM (inactive)
CN(C)/C=C/c1ccnc2c1C(=O)c1ccccc1C2=O	44 µM (inactive)	12.2 µM (inactive)	2.35 µM (inactive)	17.2 µM (inactive)	6.73 µM (inactive)	23.4 µM (inactive)	19 µM (inactive)	2.48 µM (inactive)	> 59.3 µM (inactive)	2.25 µM (inactive)	5.89 µM (inactive)	22.5 µM (inactive)	15.2 µM (inactive)	3.34	2.03 µM (inactive)	2.79 µM (inactive)	8 µM (inactive)	16.3 µM (inactive)	7.48 µM (inactive)	2.45 µM (inactive)
O=C(O)c1nc2cc(Cl)ccc2[nH]c1=O	> 100 µM (inactive)	> 100 µM (inactive)	> 100 µM (inactive)	> 100 µM (inactive)	> 100 µM (inactive)	> 100 µM (inactive)	> 100 µM (inactive)	> 100 µM (inactive)	> 100 µM (inactive)	> 100 µM (inactive)	> 100 µM (inactive)	> 100 µM (inactive)	> 100 µM (inactive)	> 100	> 100 µM (inactive)	> 100 µM (inactive)	> 100 µM (inactive)	> 100 µM (inactive)	> 100 µM (inactive)	> 100 µM (inactive)
